Results taken from US12312579B2, “Method for culturing H. pylori for future testing” (BioSherpa, LLC, priority 2019, dated 2025).
In brackets after ≈: the same amount, converted by molar mass.

Assays:
Klebsiella oxytoca = experiment: Antibiotic sensitivity (MIC) of Klebsiella oxytoca isolated from sputum, Example 2; assay type: cell-based; conditions: for Interps / MIC: Klebsiella oxytoca isolate from experimental sputum sample
MRSA [1] = experiment: Antibiotic sensitivity (MIC) of 5/5 sputum culture isolate, Example 4; assay type: cell-based, Staphylococcus aureus; conditions: 5/5 Sputum cx, Positive for MRSA
Excerpt: (§1) FIG. 5M illustrates the use of systems and methods to isolate MRSA in sputum allowing for faster initiation of anti-MRSA therapy and clinical cure. This patient was intubated for hypoxemia and pneumonia. The patient placed on ceftriaxone and azithromycin. The systems and methods allowed identification of MRSA in the patient's sputum.
(§2) The original culture taken on 5/5 (finalized on 5/7) was identical to a subsequent culture taken on 5/14 that only grew MRSA.

S. aureus [2] = experiment: Antibiotic sensitivity (MIC) of 5/14 sputum culture isolate, Example 4; assay type: cell-based, Staphylococcus aureus; conditions: 5/14 Sputum cx
Excerpt: as §2

Staphylococcus aureus = experiment: Antibiotic sensitivity (MIC) of original blood culture isolate, Example 3; assay type: cell-based; conditions: Rare Colonies Staphylococcus aureus
Procedure: (§3) While not being bound to a specific theory, the native bone may sequester sessile infection in biofilms, especially in relatively devitalized bone associated with vasculopathy. Incubation in mucolytic allows for breakdown of the biofilm and the glycerol broth allows for a nutritive environment to coax these recalcitrant organisms into a cultivable state.

S. aureus [3] = experiment: Antibiotic sensitivity (MIC) of S. aureus grown from bone incubated in the transport system, Example 3; assay type: cell-based, Staphylococcus aureus; conditions: for MIC: unit assumed
Procedure: as §3, with “FIG. 5L illustrates another view of the cultures. […] The sample was incubated for 24 hours at 37 degrees Celsius. […] While” for “While”

S. Pneumoniae = experiment: Antibiotic sensitivity pattern (MIC) of S. pneumoniae isolated from sputum, Example 1; assay type: cell-based, Streptococcus pneumoniae; conditions: for Interpretation / MIC: S. pneumoniae isolate from experimental sputum sample; for MIC: unit assumed
Excerpt: FIG. 5E illustrates the mucoid alpha Streptococcus only on the experimental sample is Streptococcus pneumonia. Streptococcus pneumoniae not isolated using standard methods.
The patient had invasive pneumococcal disease as noted by a positive Streptococcus pneumoniae urine antigen result. This sample is most impressive in that the systems and methods described herein allowed isolation of Streptococcus pneumoniae despite the patient being on ceftriaxone for two days at the time of collection. The isolate is sensitive to ceftriaxone according to the sensitivity pattern. S in the Interpretation column of the tables below indicates sensitivity, and R indicates resistance.

MRSA [4] = experiment: Clinical course of intubated patient with MRSA in sputum, Example 4; assay type: in vivo, human; conditions: one patient, MRSA pneumonia, on ventilator
Excerpt: as §1
FIG. 5N illustrates the yellow colony in the experimental site is obvious. The patient decompensated clinically to the point of near death until proper MRSA antibiotic therapy was initiated. Hypoxemia worsened and oxygen requirements increased prior to MRSA therapy.

[5] = 05 S. aureus, bone incubated 24 hours at 37 degrees Celsius

| Molecule | Interps (Klebsiella oxytoca) | MIC (Klebsiella oxytoca) [µg/mL] | Interps (MRSA [1]) | MIC (MRSA [1]) [µg/mL] | Interps (S. aureus [2]) | MIC (S. aureus [2]) [µg/mL] | Interps (Staphylococcus aureus) | MIC (Staphylococcus aureus) [µg/mL] | MIC (S. aureus [3]; [5]) [µg/mL] | further results |
| --- | --- | --- | --- | --- | --- | --- | --- | --- | --- | --- |
| NCC[C@H](O)C(=O)N[C@@H]1C[C@H](N)[C@@H](O[C@H]2O[C@H](CN)[C@@H](O)[C@H](O)[C@H]2O)[C@H](O)[C@H]1O[C@H]1O[C@H](CO)[C@@H](O)[C@H](N)[C@H]1O [Amikacin] | S | ≤ 16 |  |  |  |  |  |  |  |  |
| CC1(C)S[C@@H]2[C@H](NC(=O)[C@H](N)c3ccccc3)C(=O)N2[C@H]1C(=O)O [Ampicillin] | R | > 16 |  |  |  |  |  |  |  |  |
| Cc1nnc(SCC2=C(C(=O)O)N3C(=O)[C@@H](NC(=O)Cn4cnnn4)[C@H]3SC2)s1 [Cefazolin] | R | 8 (≈ 17.6 µM) | R | 8 (≈ 17.6 µM) | R | 16 (≈ 35.2 µM) | S | ≤ 4 | ≤ 4 | Interps (S. aureus [3]; [5]): S |
| CO/N=C(\C(=O)N[C@@H]1C(=O)N2C(C(=O)[O-])=C(C[N+]3(C)CCCC3)CS[C@H]12)c1csc(N)n1 [Cefepime] | S | ≤ 2 |  |  |  |  |  |  |  |  |
| CO/N=C(\C(=O)N[C@@H]1C(=O)N2C(C(=O)O)=C(COC(C)=O)CS[C@H]12)c1csc(N)n1 [Cefotaxime] | S | ≤ 2 |  |  |  |  |  |  |  |  |
| CO[C@@]1(NC(=O)Cc2cccs2)C(=O)N2C(C(=O)O)=C(COC(N)=O)CS[C@@H]21 [Cefoxitin] | S | ≤ 8 |  |  |  |  |  |  |  |  |
| CO/N=C(\C(=O)N[C@@H]1C(=O)N2C(C(=O)O)=C(CSc3nc(=O)c(=O)[nH]n3C)CS[C@H]12)c1csc(N)n1 [Ceftriaxone] | S | ≤ 1 |  |  |  |  |  |  |  | sensitivity of the organism (Klebsiella oxytoca): sensitive; sensitivity of the isolate according to the sensitivity pattern (S. Pneumoniae): sensitive; Interpretation (S. Pneumoniae): S; MIC (S. Pneumoniae): ≤ 0.25 µg/mL |
| O=C(O)c1cn(C2CC2)c2cc(N3CCNCC3)c(F)cc2c1=O [Ciprofloxacin] | S | ≤ 1 |  |  |  |  |  |  |  |  |
| CCC[C@@H]1C[C@@H](C(=O)N[C@@H]([C@H]2O[C@H](SC)[C@H](O)[C@@H](O)[C@H]2O)[C@H](C)Cl)N(C)C1 [Clindamycin] |  |  | R | > 4 | R | > 4 | S | ≤ 0.25 | ≤ 0.25 | Interps (S. aureus [3]; [5]): S; Interpretation (S. Pneumoniae): R; MIC (S. Pneumoniae): > 0.5 µg/mL |
| CCCCCCCCCC(=O)N[C@@H](Cc1c[nH]c2ccccc12)C(=O)N[C@H](CC(N)=O)C(=O)N[C@@H](CC(=O)O)C(=O)N[C@@H]1C(=O)NCC(=O)N[C@@H](CCCN)C(=O)N[C@@H](CC(=O)O)C(=O)N[C@H](C)C(=O)N[C@@H](CC(=O)O)C(=O)NCC(=O)N[C@H](CO)C(=O)N[C@@H]([C@H](C)CC(=O)O)C(=O)N[C@@H](CC(=O)c2ccccc2N)C(=O)O[C@@H]1C [Daptomycin] |  |  |  |  |  |  | S | 0.5 (≈ 0.309 µM) | 0.5 (≈ 0.309 µM) | Interps (S. aureus [3]; [5]): S |
| CC[C@H]1OC(=O)[C@H](C)[C@@H](O[C@H]2C[C@@](C)(OC)[C@@H](O)[C@H](C)O2)[C@H](C)[C@@H](O[C@@H]2O[C@H](C)C[C@H](N(C)C)[C@H]2O)[C@](C)(O)C[C@@H](C)C(=O)[C@H](C)[C@@H](O)[C@]1(C)O [Erythromycin] |  |  |  |  |  |  |  |  |  | Interpretation (S. Pneumoniae): R; MIC (S. Pneumoniae): > 0.5 µg/mL |
| C[C@@H](O)[C@H]1C(=O)N2C(C(=O)O)=C(SCCN=CN)C[C@H]12 [Imipenem] | S | ≤ 0.5 |  |  |  |  |  |  |  |  |
| C[C@H]1COc2c(N3CCN(C)CC3)c(F)cc3c(=O)c(C(=O)O)cn1c23 [Levofloxacin] | S | ≤ 0.25 |  |  |  |  |  |  |  | Interpretation (S. Pneumoniae): S; MIC (S. Pneumoniae): 1 µg/mL (≈ 2.77 µM) |
| CC(=O)NC[C@H]1CN(c2ccc(N3CCOCC3)c(F)c2)C(=O)O1 [Linezolid] |  |  | S | 2 (≈ 5.93 µM) | S | 2 (≈ 5.93 µM) | S | 2 (≈ 5.93 µM) | 2 (≈ 5.93 µM) | clinical outcome of therapy (MRSA [4]): allowed the patient to come off the ventilator; Interps (S. aureus [3]; 24 h): S |
| C[C@@H](O)[C@H]1C(=O)N2C(C(=O)O)=C(S[C@@H]3CN[C@H](C(=O)N(C)C)C3)[C@H](C)[C@H]12 [Meropenem] | S | ≤ 1 |  |  |  |  |  |  |  |  |
| Cc1onc(-c2ccccc2)c1C(=O)N[C@@H]1C(=O)N2[C@@H]1SC(C)(C)[C@@H]2C(=O)O [Oxacillin] |  |  | R | > 2 | R | > 2 | S | ≤ 0.25 | ≤ 0.25 | Interps (S. aureus [3]; 24 h): S |
| CO[C@H]1/C=C/O[C@@]2(C)Oc3c(C)c(O)c4c(O)c(c(/C=N/N5CCN(C)CC5)c(O)c4c3C2=O)NC(=O)/C(C)=C\C=C\[C@H](C)[C@H](O)[C@@H](C)[C@@H](O)[C@@H](C)[C@H](OC(C)=O)[C@@H]1C [Rifampin] |  |  | S | ≤ 1 | S | ≤ 1 |  |  | ≤ 1 | Interps (S. aureus [3]; 24 h): S |
| CN(C)[C@@H]1C(O)=C(C(N)=O)C(=O)[C@@]2(O)C(O)=C3C(=O)c4c(O)cccc4[C@@](C)(O)[C@H]3C[C@@H]12 [Tetracycline] | S | ≤ 4 | S | ≤ 1 | S | ≤ 1 | R |  |  | Interps (S. aureus [3]; [5]): R |
| NC[C@H]1O[C@H](O[C@H]2[C@H](O)[C@@H](O[C@H]3O[C@H](CO)[C@@H](O)[C@H](N)[C@H]3O)[C@H](N)C[C@@H]2N)[C@H](N)C[C@@H]1O [Tobramycin] | S | ≤ 1 |  |  |  |  |  |  |  |  |
| CN[C@H](CC(C)C)C(=O)N[C@H]1C(=O)N[C@@H](CC(N)=O)C(=O)N[C@H]2C(=O)N[C@H]3C(=O)N[C@H](C(=O)N[C@H](C(=O)O)c4cc(O)cc(O)c4-c4cc3ccc4O)[C@H](O)c3ccc(c(Cl)c3)Oc3cc2cc(c3O[C@@H]2O[C@H](CO)[C@@H](O)[C@H](O)[C@H]2O[C@H]2C[C@](C)(N)[C@H](O)[C@H](C)O2)Oc2ccc(cc2Cl)[C@H]1O [Vancomycin] |  |  | S | 2 (≈ 1.38 µM) | S | 2 (≈ 1.38 µM) | S | 1 (≈ 0.69 µM) | 1 (≈ 0.69 µM) | clinical outcome of therapy (MRSA [4]): allowed the patient to come off the ventilator; Interps (S. aureus [3]; [5]): S; Interpretation (S. Pneumoniae): S; MIC (S. Pneumoniae): 0.25 µg/mL (≈ 0.173 µM) |
| CC[C@H]1OC(=O)[C@H](C)[C@@H](O[C@H]2C[C@@](C)(OC)[C@@H](O)[C@H](C)O2)[C@H](C)[C@@H](O[C@@H]2O[C@H](C)C[C@H](N(C)C)[C@H]2O)[C@](C)(O)C[C@@H](C)CN(C)[C@H](C)[C@@H](O)[C@]1(C)O [azithromycin] |  |  |  |  |  |  |  |  |  | macrolide resistance of the isolate (S. Pneumoniae; inferred from macrolide resistance): resistant |
| Gentamicin | S | ≤ 1 | S | ≤ 1 | S | ≤ 1 | S | ≤ 1 | ≤ 1 | Interps (S. aureus [3]; [5]): S |
| Penicillin |  |  |  |  |  |  |  |  |  | Interpretation (S. Pneumoniae): S; MIC (S. Pneumoniae): ≤ 0.03 µg/mL |
